Tests used:
Male Marshall ferrets = experiment: Emetic action; type: in vivo; settings: oral, observed within 12 hours, dose = ED50 of Assay Example 2
Method: Male Marshall ferrets (each group consisting of 3 animals) as used herein fasted overnight. On the next day, a suspension of each test compound in 0.5% CMC—Na solution was administered orally to the animals. […] Next, each maximum tolerance dose against emesis was obtained. SB207499 was used for the reference compound in this assay.

[1] = system: PDE IV isozymes separated from U937 culture cells; experiment: PDE IV inhibition ([3H]-cAMP hydrolysis); type: biochemical; settings: cAMP 1 μM as substrate, 30° C., 20 minutes, Probit method
Method: PDE IV isozymes as used herein were separated from U937 culture cells by using an anion exchange chromatography. Type IV PDE isozyme was admixed with ethylene glycol (EG) to adjust the final EG concentration to 30%, then stored at −20° C. and diluted when used. The enzymatic activity for PDE IV was measured using cAMP as a substrate.
Each test compound was dissolved in DMSO to adjust the final concentration to 1% (2.5 μl/tube). Incubation buffer solution (pH7.5): • Tris-HCl (50 mM), magnesium chloride (6 mM), dithiothreitol (2.5 mM), 5-nucleotidase (4 μg/ml), bovine serum albumin (0.23 mg/ml), and cAMP (1 μM).
A mixture of the aforementioned test compound solution and the buffer solution was incubated at 30° C. for 20 minutes. The reaction was quenched by admixing with 1 ml of anion exchange resin slurry (AG1-X8, 200–400 meshes, chloride form; Bio-Rad) to absorb unreacted substrates. After the reaction stopped, the mixture was centrifuged at 800×g for 10 minutes, and the resulting supernatant was collected with vials in 250 μl aliquots. To each vial was added 5 ml of ACS-II (scintillator, Amersham). The radioactivity was measured with a liquid scintillator counter for [^3H]-adenosine and set as the PDE IV activity.

ICR mice = experiment: Toxicology study; type: in vivo; settings: oral 300 mg/10 ml/kg
Method: Each Compound (Example Nos. 7 and 8) was administered orally to ICR mice (7 animals per group) as a test compound. […] Each test compound was suspended in 0.5% CMC—Na solution and given orally to the animal at a dose of 300 mg/10 ml/kg.

[2] = system: actively sensitized guinea pigs; experiment: Inhibition of antigen-induced immediate asthmatic response (airway resistance, Konzett-Rossler method); type: in vivo, Male Hartley outbred guinea pigs; settings: Cavia porcellus; orally, 60 minutes prior to antigen-challenge, ovalbumin-sensitized guinea pigs, Probit method
Method: Male Hartley outbred guinea pigs were sensitized by administering intraperitoneally physiological saline (0.5 ml) containing ovalbumin (1 mg, antigen) and 5×10^9 inactivated Bordetella pertussis dead cells (adjuvant). Eleven to thirteen days after the first sensitization, 0.05 ml of an ovalbumin solution (1 mg/ml) (ovalbumin is dissolved in physiological saline) was administered to the lateroabdominal region of each guinea pig intracutaneously. An establishment of sensitization was checked relying on cutaneous reaction. Only guinea pigs wherein significant reddening responses occurred 5 to 10 minutes later were employed in the next measurement test for airway resistance.
The guinea pigs (3 animals per group) actively sensitized in the above step (1) were employed to measure for their airway pressure according to Konzett-Rossler method (Arch. Exp. Path. Pharmakol., 195, 71 (1940)).
Thirteen days after the final sensitization, guinea pigs fasted overnight, and were on the next day anesthetized with a pentobarbital solution (30 mg/1.2 ml/kg, dissolved in physiological saline, intraperitoneal administration). After the guinea pigs were fixed in a supine position, their trachea was incised followed by insertion with one port of a 4-port cannula. Among the remaining 3 ports, 2 ports were connected to an artificial respirator (Model 683, Harvard). The animals were ventilated with 10 ml/kg of air per ventilation at a rate of 60 beats/min via the artificial respirator from the cannula. One port remainder was connected to a respiratory amplifier (AR-601G, Nihon Kohden, Japan) via an airflow resistance tube (TV-241T, Nihon Kohden, Japan) and a differential pressure transducer (TP-602T, Nihon Kohden, Japan) connected with a control box (RY-111S, Nihon Kohden, Japan). From a catheter inserted into a left carotid artery, blood pressures were monitored with a blood pressure measurement unit (AP641G, NEC Corp., Japan) via a blood pressure transducer (TP-300T, Nihon Kohden, Japan), and heart rates were recorded on a thermal recorder (WT-685G, Nihon Kohden, Japan), relying on blood pressure pulse waves after being led to a cardiograph unit (AT601G, Nihon Kohden, Japan).
After airway pressure became stable, an ovalbumin solution. (1 mg/ml, dissolved in physiological saline) was administered at a dose of 1 ml/kg via a tube with which the right jugular vein of guinea pigs was cannulated.
Each test compound was suspended in 0.5% CMC—Na solution and administered orally with an oral sound at a dose of 0.03 to 20 mg/2 ml/kg 60 minutes prior to the antigen-challenge. Control groups received only 0.5% CMC—Na solution in an equivalent amount. The pentobarbital-anesthetization and tracheal incision were conducted 30 minutes prior to the antigen-challenge.
Each percent reduction of increase in airway resistance (each test compound-administered group versus control group) was calculated according to the equation given below. ED50 was obtained by Probit method.

TNF-α production = experiment: Inhibition of TNF-α production in galactosamine- and LPS-stimulation; type: in vivo, C3H/HeN mice; settings: Mus musculus; oral, 1 hour before i.v. galactosamine 800 mg/kg and LPS 5 μg/kg; serum TNF-α by ELISA 1 hour later
Method: A suspension of each test compound in 0.5% CMC—Na solution was administered orally to C3H/HeN mice at a dose of 0.10 to 10 mg/kg. One hour later, the animals received intravenously galactosamine at a dose of 800 mg/kg and LPS at a dose 5 μg/kg to raise the induction of TNF-α production. One hour later after the galactosamine- and LPS-administration, amounts of TNF-α in serum samples were measured by ELISA.

Compound: Nc1cccc(-n2c(=O)c(CCCc3ccncc3)cc3cccnc32)c1 [Example No. 7, 1-(3-Aminophenyl)-3-[3-(pyridin-4-yl)propyl]-1,8-naphthyridin-2(1H)-one]
- Emetic actions at asthmatic response-inhibitory ED50 level (Male Marshall ferrets): no observation for emetic actions
- IC50 [1]: 0.23 µM
- Body weight gain (ICR mice): No reduction of body weight gains was observed
- Mortality (ICR mice): None of the animals were died
- Other parameters (general health conditions) (ICR mice): no abnormality was observed
- ED50 [2]: 1.1 mg/kg
- ED50 (TNF-α production): 0.45 mg/kg

Source: patent US7115623B2, “PDE IV inhibitors” (Aska Pharmaceuticals Co., Ltd., priority 2001, dated 2006)
